# Assay results: patent US20090068290A1, “BIFEPRUNOX DOSES FOR TREATING SCHIZOPHRENIA” (priority 2006, published 2009)
# Tests used:
# Type in all cases: in vivo, human
# [1] = system: adult subjects with schizophrenia; experiment: Calgary Depression Scale for Schizophrenia (CDSS), Clinical Study Two; conditions: for Change from Baseline in CDSS Total Score, Median / Change from Baseline in CDSS Total Score, Mean (SD): 40 mg; for Change from Baseline in CDSS Total Score, Median / Change from Baseline in CDSS Total Score, Mean (SD) / mean change (SD) from Baseline to Endpoint in CDSS score: LOCF; for CDSS score, treatment effect (bifeprunox, placebo): Endpoint LOCF; for mean change (SD) from Baseline to Endpoint in CDSS score: ITT
# Procedure: Rating scale assessments were performed weekly, except for week 5, to measure the change from baseline to endpoint of the PANSS total score. Other assessments included: PANSS positive symptom subscale score, PANSS negative symptom subscale score, PANSS general pschopathology subscale score, BPRS total score, BPRS psychosis score, the CGI-S score, the CGI-I score, responder rates based on the PANSS total score, and the Calgary Depression Scale for Schizophrenia (CDSS). […]
# Subjects who completed this study had the option to continue in the long-term. […] Risperidone-treated subjects were titrated from 2 mg to 6 mg daily over a three-day period and were subsequently maintained at 6 mg/day for the remainder of the treatment period. […] Blood samples were also obtained at Screening/Baseline, Week 3, and Week 6 for clinical laboratory assessments.
# [2] = system: adult subjects with schizophrenia; experiment: PANSS total score, Clinical Study Three (6-week, olanzapine-referenced); conditions: for Change from Baseline in PANSS Total Score, Mean (SD) / Change from Baseline in PANSS Total Score, Median / PANSS Total Score, Trt Effect (difference between bifeprunox and placebo): LOCF, ITT; for PANSS Total Score, Trt Effect (difference between bifeprunox and placebo): ANCOVA
# Procedure: There were four treatment arms in this study, approximately 144 subjects per arm. […] After completing the Single-Blind Placebo Lead-in Period of at least three days, bifeprunox-treated subjects were titrated from 0.25 mg up to 20 mg/day or 30 mg/day according to a standardized titration scheme over a seven- or eight-day period, respectively. When the assigned dose was reached, subjects were maintained at that dose for the remainder of the six week treatment period. […] Subjects were hospitalized (if not already inpatients) after eligibility for study entry was verified, starting from the Screening Visit until at least 10 days after Baseline. Subjects could be hospitalized longer than 10 days if considered medically necessary by the Investigator. Rating scale assessments for efficacy and abnormal movement disorders were done weekly except for Week 5. Safety assessments were performed at Screening, during treatment and at the end of the study. Subject satisfaction with study medication was assessed at Week 6. Samples of whole blood were obtained at Weeks 2, 4, and 6 for determination of bifeprunox in plasma.
# Test Product, Dose and Mode of Administration: Bifeprunox tablets, total daily dose 20 mg or 30 mg (one 20 mg tablet and one 10 mg tablet) administered orally using a once daily dosing regimen.
# [3] = system: adult subjects with schizophrenia; experiment: PANSS general psychopathology subscale score, Clinical Study Three; conditions: for Change from Baseline in PASS General Psychopathology Subscale Score, Mean (SD) / Change from Baseline in PASS General Psychopathology Subscale Score, Median / Trt Effect (bifeprunox - placebo), PASS General Psychopathology Subscale Score / mean change (SD) from Baseline to Endpoint in PANSS general psychopathology subscale score: LOCF; for Change from Baseline in PASS General Psychopathology Subscale Score, Mean (SD) / Change from Baseline in PASS General Psychopathology Subscale Score, Median / Trt Effect (bifeprunox - placebo), PASS General Psychopathology Subscale Score: ITT population; for Trt Effect (bifeprunox - placebo), PASS General Psychopathology Subscale Score: ANCOVA; for PANSS general psychopathology subscale score, treatment effect (bifeprunox—placebo): Endpoint LOCF; for mean change (SD) from Baseline to Endpoint in PANSS general psychopathology subscale score: ITT
# From the text: SECONDARY OBJECTIVES To assess the efficacy of bifeprunox in treating schizophrenia using the Positive Symptom sub-scale score of the PANSS, the Negative Symptom sub-scale score of the PANSS, the General Psychopathology sub-scale of the PANSS, Brief Psychiatric Rating Scale (BPRS) total score derived from the PANSS, BPRS psychosis score derived from the PANSS, the Clinical Global Impression Severity of Illness score (CGI-S), the Clinical Global Impression Improvement score (CGI-I), CGI-I responder rate, PANSS responder rate based on the PANSS total score, Calgary Depression Scale for Schizophrenia (CDSS), and Subject Satisfaction rating.
# There were four treatment arms in this study, approximately 144 subjects per arm. […] After completing the Single-Blind Placebo Lead-in Period of at least three days, bifeprunox-treated subjects were titrated from 0.25 mg up to 20 mg/day or 30 mg/day according to a standardized titration scheme over a seven- or eight-day period, respectively. When the assigned dose was reached, subjects were maintained at that dose for the remainder of the six week treatment period. […] Subjects were hospitalized (if not already inpatients) after eligibility for study entry was verified, starting from the Screening Visit until at least 10 days after Baseline. Subjects could be hospitalized longer than 10 days if considered medically necessary by the Investigator. Rating scale assessments for efficacy and abnormal movement disorders were done weekly except for Week 5. […] Subject satisfaction with study medication was assessed at Week 6.
# [4] = Bifeprunox 20 mg, Week 6/Endpoint
# [5] = Bifeprunox 30 mg, Week 6/Endpoint
smiles,measurement,setting,value
"O=c1[nH]c2cccc(N3CCN(Cc4cccc(-c5ccccc5)c4)CC3)c2o1 [Bifeprunox, 7-[4-([1,1′-biphenyl]-3-ylmethyl)-1-piperazinyl]-2(3H)-benzoxazolone]","Change from Baseline in CDSS Total Score, Median",[1]; Week 3,0.0
same,"Change from Baseline in CDSS Total Score, Mean (SD)",[1]; Week 4,−0.19 (3.32)
same,"Change from Baseline in CDSS Total Score, Median",[1]; Week 4,0.0
same,"Change from Baseline in CDSS Total Score, Mean (SD)",[1]; Week 6/Endpoint,0.01 (3.66)
same,"Change from Baseline in CDSS Total Score, Median",[1]; Week 6/Endpoint,0.0
same,"CDSS score, treatment effect (bifeprunox, placebo)",[1]; bifeprunox 30 mg,−0.38
same,mean change (SD) from Baseline to Endpoint in CDSS score,[1]; bifeprunox 30 mg,−0.66 (3.64)
same,"CDSS score, treatment effect (bifeprunox, placebo)",[1]; bifeprunox 40 mg,0.29
same,mean change (SD) from Baseline to Endpoint in CDSS score,[1]; bifeprunox 40 mg,0.01 (3.66)
same,"Change from Baseline in PANSS Total Score, Mean (SD)","[2]; Bifeprunox 20 mg, Week 1",−5.6 (11.7)
same,"Change from Baseline in PANSS Total Score, Median","[2]; Bifeprunox 20 mg, Week 1",−5
same,"Change from Baseline in PANSS Total Score, Mean (SD)","[2]; Bifeprunox 20 mg, Week 2",−10.2 (14.8)
same,"Change from Baseline in PANSS Total Score, Median","[2]; Bifeprunox 20 mg, Week 2",−10
same,"Change from Baseline in PANSS Total Score, Mean (SD)","[2]; Bifeprunox 20 mg, Week 3",−12.6 (16.9)
same,"Change from Baseline in PANSS Total Score, Median","[2]; Bifeprunox 20 mg, Week 3",−13
same,"Change from Baseline in PANSS Total Score, Mean (SD)","[2]; Bifeprunox 20 mg, Week 4",−13.3 (18.7)
same,"Change from Baseline in PANSS Total Score, Median","[2]; Bifeprunox 20 mg, Week 4",−13
same,"Change from Baseline in PANSS Total Score, Mean (SD)",[2]; [4],−13.8 (19.9)
same,"Change from Baseline in PANSS Total Score, Median",[2]; [4],−14
same,"PANSS Total Score, Trt Effect (difference between bifeprunox and placebo)",[2]; [4],−3.5
same,"Change from Baseline in PANSS Total Score, Median","[2]; Bifeprunox 30 mg, Week 1",−6
same,"Change from Baseline in PANSS Total Score, Mean (SD)","[2]; Bifeprunox 30 mg, Week 2",−8.5 (15.6)
same,"Change from Baseline in PANSS Total Score, Median","[2]; Bifeprunox 30 mg, Week 2",−9
same,"Change from Baseline in PANSS Total Score, Mean (SD)","[2]; Bifeprunox 30 mg, Week 3",−11.1 (18.0)
same,"Change from Baseline in PANSS Total Score, Median","[2]; Bifeprunox 30 mg, Week 3",−11
same,"Change from Baseline in PANSS Total Score, Mean (SD)","[2]; Bifeprunox 30 mg, Week 4",−12.0 (18.6)
same,"Change from Baseline in PANSS Total Score, Median","[2]; Bifeprunox 30 mg, Week 4",−13
same,"Change from Baseline in PANSS Total Score, Mean (SD)",[2]; [5],−13.1 (20.2)
same,"Change from Baseline in PANSS Total Score, Median",[2]; [5],−13
same,"PANSS Total Score, Trt Effect (difference between bifeprunox and placebo)",[2]; [5],−2.2
same,"efficacy compared to placebo, primary and key secondary efficacy parameters","[2]; bifeprunox 20 mg and 30 mg, Endpoint",did not demonstrate efficacy as compared to the placebo group
same,"Change from Baseline in PASS General Psychopathology Subscale Score, Mean (SD)","[3]; Bifeprunox 20 mg, Week 1",−2.4 (6.7)
same,"Change from Baseline in PASS General Psychopathology Subscale Score, Median","[3]; Bifeprunox 20 mg, Week 1",−2
same,"Change from Baseline in PASS General Psychopathology Subscale Score, Mean (SD)","[3]; Bifeprunox 20 mg, Week 2",−4.6 (8.4)
same,"Change from Baseline in PASS General Psychopathology Subscale Score, Median","[3]; Bifeprunox 20 mg, Week 2",−5
same,"Change from Baseline in PASS General Psychopathology Subscale Score, Mean (SD)","[3]; Bifeprunox 20 mg, Week 3",−5.6 (9.3)
same,"Change from Baseline in PASS General Psychopathology Subscale Score, Median","[3]; Bifeprunox 20 mg, Week 3",−6
same,"Change from Baseline in PASS General Psychopathology Subscale Score, Mean (SD)","[3]; Bifeprunox 20 mg, Week 4",−5.8 (10.1)
same,"Change from Baseline in PASS General Psychopathology Subscale Score, Median","[3]; Bifeprunox 20 mg, Week 4",−7
same,"Change from Baseline in PASS General Psychopathology Subscale Score, Mean (SD)",[3]; [4],−6.1 (10.7)
same,"Change from Baseline in PASS General Psychopathology Subscale Score, Median",[3]; [4],−7
same,"Trt Effect (bifeprunox - placebo), PASS General Psychopathology Subscale Score",[3]; [4],−1.5
same,"Change from Baseline in PASS General Psychopathology Subscale Score, Mean (SD)","[3]; Bifeprunox 30 mg, Week 1",−2.8 (6.3)
same,"Change from Baseline in PASS General Psychopathology Subscale Score, Median","[3]; Bifeprunox 30 mg, Week 1",−3
same,"Change from Baseline in PASS General Psychopathology Subscale Score, Mean (SD)","[3]; Bifeprunox 30 mg, Week 2",−3.8 (8.2)
same,"Change from Baseline in PASS General Psychopathology Subscale Score, Median","[3]; Bifeprunox 30 mg, Week 2",−4
same,"Change from Baseline in PASS General Psychopathology Subscale Score, Mean (SD)","[3]; Bifeprunox 30 mg, Week 3",−5.0 (9.3)
same,"Change from Baseline in PASS General Psychopathology Subscale Score, Median","[3]; Bifeprunox 30 mg, Week 3",−4
same,"Change from Baseline in PASS General Psychopathology Subscale Score, Median","[3]; Bifeprunox 30 mg, Week 4",−5
same,"Change from Baseline in PASS General Psychopathology Subscale Score, Mean (SD)",[3]; [5],−5.8 (10.3)
same,"Change from Baseline in PASS General Psychopathology Subscale Score, Median",[3]; [5],−6
same,"Trt Effect (bifeprunox - placebo), PASS General Psychopathology Subscale Score",[3]; [5],−0.9
same,"PANSS general psychopathology subscale score, treatment effect (bifeprunox—placebo)",[3]; bifeprunox 20 mg,−1.5
same,mean change (SD) from Baseline to Endpoint in PANSS general psychopathology subscale score,[3]; bifeprunox 20 mg,−6.1 (10.7)
same,"PANSS general psychopathology subscale score, treatment effect (bifeprunox—placebo)",[3]; bifeprunox 30 mg,−0.9
same,mean change (SD) from Baseline to Endpoint in PANSS general psychopathology subscale score,[3]; bifeprunox 30 mg,−5.8 (10.3)
